Test results reported in a melting point compilation (Tetko et al.; mined from patent text by program, amines drawn as free bases though some values may be those of a salt).

| melting point | SMILES |
| --- | --- |
| 257 to 263 °C | Cc1cc(CN2CCN(c3ccc(C(=O)NC4CC4)cc3)CC2)cc2c1OC(C)C(=O)N2 (stereo not drawn) |
| > 300 °C | O=C(Nc1ccccc1)C1CCc2c(cnc3[nH]ncc23)C1 (stereo not drawn) |
| 184 to 187 °C | COc1cc2oc(=O)c(CCO)c(C)c2cc1OC |
| 205 to 217 °C | COC(=O)CC(=O)NC[C@H]1CN(c2ccc3c(c2)CCCc2cnoc2-3)C(=O)O1 |
| 135 to 141 °C | COc1ccc2[nH]c3c(c2c1)CC(OC(=O)c1ccccc1)CC3 (stereo not drawn) |
| 212 to 215 °C | O=C(NC(=O)c1c(Cl)cccc1Cl)Nc1noc2ccccc12 |
| 105 to 106 °C | Cc1oc(-c2ccccc2)nc1COc1cc(CCl)on1 |
| > 260 °C | NC(Cc1c[nH]c2c(Br)cccc12)C(=O)O (stereo not drawn) |
| 108 °C | CCCc1nc(C)n2nc(C(=O)OCC)nc2c1Cc1ccc(-c2ccccc2C#N)cc1 |
| 177 to 179 °C | CCc1cc(=O)n(CCC(C(=O)NO)N(C)S(=O)(=O)c2ccc(Oc3ccccc3)cc2)c(=O)[nH]1 (stereo not drawn) |
| 188 to 189 °C | S=c1[nH]ccn1C1CCCc2ccccc21 (stereo not drawn) |
| 95 to 97 °C | CSCC[C@H](N)C(=O)NC(=O)N(CCCl)N=O |
| 67 to 68 °C | COC(=O)C(C)(C)CCCOc1cc(C)c(OCc2ccccc2)c(C)c1C |
| 85 to 89 °C | Cc1c(C)c(Cl)c(Cl)c(Cl)c1Cl |
| 158 to 160 °C | COC(=O)c1ccccc1Sc1c(O)c2c(Cl)cc(Cl)cc2[nH]c1=O |
| 170 to 171 °C | Cc1noc(C)c1Cn1cc(N2C(=O)c3ccccc3C2=O)cn1 |
| 153 to 155 °C | CCOC(=O)c1[nH]c(=O)c(CC(C)C)[n+]([O-])c1O |
| 147 to 148 °C | N#CC(=C1C=CC(=NOC(=O)C(Cl)(Cl)Cl)C=C1)c1ccccc1 |
| 52 to 58 °C | CCOC(=O)c1c(C(F)(F)F)nc(C(F)(F)F)c(C(=O)OCC)c1N |
| 167 to 169 °C | Cc1c(-c2ccccc2)c(N2CC[C@H](N(C)C)C2)c2oc(N3CC(C)(O)C3)nc2c1C#N |
| 120 to 121 °C | O=C(O)CCCCCCc1cnc2ccccc2c1 |
| 108 to 110 °C | Cc1c(-c2ccc(Cl)s2)ccc(N)c1C#N |
| 149 to 150 °C | CSc1cc(C)nc(SC)c1NC(=O)CCCSc1nc2ccccc2o1 |
| 107 to 110 °C | CC(=O)c1nc2ccc(Cl)cc2cc1OCc1ccccc1 |
| 222 to 223 °C | COc1cc(-c2cnc3[nH]cc(C(=O)C(C)(CO)CO)c3n2)cc(OC)c1OC |
| 142 to 144 °C | N#CC=C1CCN(c2ccc(N3C[C@H](CNC(=O)C(Cl)(Cl)Cl)OC3=O)cc2F)CC1 |

| melting point | SMILES |
| --- | --- |
| 128 to 130 °C | COC(=O)c1ccc(CN([C@@H](CO)Cc2ccccc2)S(=O)(=O)c2ccc(Cl)cc2)cc1 |
| 61 to 62 °C | COc1cccc(-c2cnc(-c3ccoc3)s2)c1 |
| 235 to 237 °C | N#CC1CCN(c2ccc3c(NC(=O)CC4CCCCC4)c(Cl)ccc3n2)CC1 |
| 259 to 261 °C | CC(=O)c1cc(C#N)c(=O)[nH]c1-c1ccccc1 |
| 185 to 186 °C | CC(C)(C)c1ccc(C(=O)Nc2ccc3oc4c(c3c2)CCCC4)cc1 |
| > 300 °C | O=C(Cc1ccccc1)Nc1cc(C(=O)O)cc(C(=O)O)c1 |
| 87 to 89 °C | COC(=O)Cc1ccccc1SCc1cccc(OC)c1 |
| 144 to 145 °C | COCCCc1nnc(-c2ccc(-c3ccccc3)nc2)n1-c1cccc(C#N)c1C |
| 134 to 141 °C | CCOC(=O)C1CC1c1cc(=O)c2cc(-c3ccccc3)ccc2o1 (stereo not drawn) |
| > 250 °C | CC(C)C1=C(C#N)C(c2cccc(C#N)c2Br)c2c[nH]nc2N1 (stereo not drawn) |
| 180 to 182 °C | CC(Sc1cc2cc(O)ccc2[nH]1)(C(=O)O)c1ccccc1 (stereo not drawn) |
| 197 °C | O=c1ncc(Cl)cn1Cc1ccccc1 |
| 165 to 166 °C | CCCSc1nc(NC2CC2c2ccccc2)c2nnn(C3CC(C(=O)NC)C(O)C3O)c2n1 (stereo not drawn) |
| 86 to 88 °C | CC1(C)OC(=O)N2CCN(C(=O)OCc3ccccc3)CC21 (stereo not drawn) |
| 205 to 208 °C | CC(=O)c1cccc(C(=O)Nc2c[nH]nc2C(=O)NCCC#N)c1 |
| 151 to 152 °C | NC(=O)c1cc2c(OCCCN3CCN(c4cc(N5CCCC5)nc(N5CCCC5)n4)CC3)cccc2[nH]1 |
| 139 to 141 °C | CC(=O)N1CCC(Oc2ccc([N+](=O)[O-])cc2C)CC1 |
| 153 to 156 °C | C[C@@H]1c2cc(F)ccc2-c2ccc(F)cc2N1S(=O)(=O)c1ccc(O)cc1O |
| 134 to 136 °C | CC(C)(OCc1cc2cc(C(F)(F)F)ccc2n1S(=O)(=O)c1ccccc1)C(=O)O |
| 172 to 174 °C | O=C(C[N+](=O)[O-])c1ccc2c(c1)CCN2 |
| 200 to 201 °C | O=C(OCc1ccccc1)C1N2C(=O)C(NC(c3ccccc3)(c3ccccc3)c3ccccc3)C2SC12CCN(c1ccccc1)CC2 (stereo not drawn) |
| 296 to 300 °C | CCCc1nc(C)n2c(=O)n(CC(=O)O)nc2c1Cc1ccc(NC(=O)c2ccccc2S(=O)(=O)O)cc1 |
| 59 to 61 °C | O=C(CC1CCCC1=O)c1ccc(Br)cc1 (stereo not drawn) |
| 208 to 210 °C | O=c1[nH]nc2n1C=Cc1ccccc1C2 |
| 147 to 148 °C | NS(=O)(=O)c1sc(Cl)cc1C(=O)CBr |
| 151 °C | CC#CCOc1ccc(SC(C(=O)NO)c2ccccc2)cc1 (stereo not drawn) |

| melting point | SMILES |
| --- | --- |
| 82 to 84 °C | C=CCNc1nc(NC/C=C/c2ccccc2)c2scc(C)c2n1 |
| 90 to 92 °C | NC(=O)C(NCCc1cccs1)c1ccccc1Cl (stereo not drawn) |
| 115 to 117 °C | COc1cc(C(=O)COC(C)=O)ccc1O |
| 120 to 122 °C | CC(C)(C)OC(=O)N[C@H]1COC1=O |
| 182 to 186 °C | FC(F)(F)c1nc(-c2ncn3c2nc(N2CCOCC2)c2ccccc23)no1 |
| 84 to 85 °C | Cc1cc(-c2oncc2CCl)ccc1Cl |
| 58.7 to 59 °C | CCCCCCCCc1cnc(-c2ccc(OC)c(F)c2)nc1 |
| 262 to 265 °C | CC(C)(Cn1c(CO)nc2c(N)nc3ccccc3c21)NS(C)(=O)=O |
| 152 to 153 °C | COc1ccc2c(N(C)CCc3ccccn3)noc2c1 |
| 97.4 to 117 °C | CC(C)(C)c1cc(C(=NN)c2ccccc2)cc(C(C)(C)C)c1O |
| 87 to 88 °C | COC(=O)[C@H]1CCc2c(OC)cccc2[C@@H]1O |
| 279 to 280 °C | COc1ccc(S(=O)(=O)Nc2nc(-c3ccccc3)nn2C)cc1OC |
| 87.5 to 89 °C | CCCc1c(OCc2ccccc2)ccc2c(=O)ccoc12 |
| 100 °C | CC(C)[C@H](O)C(=O)NCCc1ccccc1 |
| 83 to 85 °C | N#CCCn1cc(-c2cccc(Cl)c2Cl)c(C(F)(F)F)c1 |
| 69 to 72 °C | O=C(CSc1cccs1)C12CC3CC(CC(C3)C1)C2 |
| 224 to 225 °C | CC(C)n1c(C=O)c(-c2ccc(F)cc2)c(-c2ccccc2)c1C(=O)Nc1cccc(S(N)(=O)=O)c1 |
| 175 to 178 °C | COc1cc(OC)cc(-c2ncoc2-c2ccc3c(c2)NCCO3)c1 |
| 110 to 112 °C | CC(C)c1nn(-c2ccccc2)c(-c2ccc(F)cc2)c1C=O |
| 273 to 275 °C | CC1(C)CS(=O)CC(C)(C)c2[nH]c(-c3ccccc3)nc21 |
| 125 °C | COC(=O)[C@H](O)[C@@H](NC(=O)OC(C)(C)C)c1ccc(F)cc1 |
| 148 to 150 °C | O=C1OC(CCCO)C(c2ccccc2)=C1O (stereo not drawn) |
| 59 to 62 °C | CCOC(=O)Cc1c2ccccc2n2c(-c3ccccc3)nccc12 |
| 57 to 62 °C | Oc1ccc(CC2CC2(Cl)Cl)cc1 (stereo not drawn) |
| 55 °C | CCCCCC1C=CC(c2ccc(OC)cc2)=CC1 (stereo not drawn) |
| 114 to 116 °C | Cc1nc(Br)sc1NC(=O)OC(C)(C)C |

| melting point | SMILES |
| --- | --- |
| 202 to 203 °C | O=c1[nH]c2ccc(-c3cccc([N+](=O)[O-])c3)cc2n1Cc1ccccc1 |
| 83 to 87 °C | CCn1nc(O)nc1SC |
| 95 °C | CCCC1CCC(c2ccc(-c3cc(F)c(C(F)(F)Oc4cc(F)c(C(F)(F)F)c(F)c4)c(F)c3)c(F)c2)OC1 (stereo not drawn) |
| 117 °C | CCCCOc1ccc(-c2cnc(Cl)nc2)cn1 |
| 75 to 77 °C | O=C(O)CCCCCCNS(=O)(=O)c1ccccc1 |
| 120 °C | O=C1NC(=O)C(=Cc2ccc(OCCN3C(=O)SC(c4ccccc4)C3=O)cc2)S1 (stereo not drawn) |
| 200 to 201 °C | COC(=O)c1ccc(OCC2CN(c3ccc([N+](=O)[O-])cc3)C(=O)O2)cc1 (stereo not drawn) |
| 130 to 131 °C | O=C(Cc1ccccc1)NC1C(=O)N2C1SC1(CCN(Cc3ccccc3)CC1)C2C(=O)OCc1ccccc1 (stereo not drawn) |
| 206 to 208 °C | Cc1c(Cl)ccc(C(N)=O)c1N |
| 116 to 118 °C | CCC(C)(C)c1cc(C(C)c2cc(C(C)(C)CC)cc(C(C)(C)CC)c2O)c(O)c(C(C)(C)CC)c1 |
| 164 to 167 °C | Cn1cc(-c2cccc(Cl)c2)c(=O)c(-c2cccc(Cl)c2)c1 |
| 81 to 83 °C | Cc1ccc2ccc3ccccc3c(=O)c2c1 |
| 282 to 284 °C | N#Cc1cccc(C(=O)NCc2cccc3c2CN(C2CCC(=O)NC2=O)C3=O)c1 (stereo not drawn) |
| 76 to 78 °C | COc1cnn(C2CCCCO2)c(=O)c1 (stereo not drawn) |
| 94 to 102 °C | O=C(Nc1ccccn1)c1cc2ccnc(Cl)c2[nH]1 |
| 176 to 177 °C | O=CN(O)C(CS(=O)(=O)c1ccc(Oc2ccc(OC(F)(F)F)cc2)cc1)C1CCC2(CC1)OCCO2 (stereo not drawn) |
| 188 to 192 °C | CCS(=O)(=O)c1ccc(C(=O)O)c(Cl)c1O |
| 94.8 °C | O=C(Nc1ccc2ccccc2c1-c1c(P(c2ccccc2)c2ccccc2)ccc2ccccc12)c1ccccc1 |
| 225 to 229 °C | Cc1ccc2oc(=O)c(C(=O)Oc3cc([N+](=O)[O-])ccc3[N+](=O)[O-])cc2c1 |
| 160 to 162 °C | NC(=O)c1ccc(NC2CCN(Cc3ccccc3)C2)cc1 (stereo not drawn) |
| 279 to 281 °C | Cc1cc2c(-c3cccnc3)c(CC(=O)O)c(=O)oc2cc1Cl |
| 202 to 204 °C | O=C1CSCN1CC#CCN1CCC(n2c(=O)[nH]c3ccccc32)CC1 |
| 139 to 140 °C | CC(=O)NCc1ccc(CN2CCN(c3ccc(F)cc3N)CC2)cc1 |

| SMILES | melting point |
| --- | --- |
| CNS(=O)(=O)c1ccc2c3c(cc([N+](=O)[O-])c2c1)N(C(=O)c1cc2cc(OCCN(C)C)ccc2[nH]1)CC3CCl (stereo not drawn) | > 350 °C |
| CN(C)C1(c2ccccc2)CCC2(CC1)NCCc1c2[nH]c2ccccc12 (stereo not drawn) | 214 to 218 °C |
